How the values were obtained:
patients with PD [1] = test: CNS / neurological symptoms in Stage 2 (UPDRS, MMSE, PDHQ, BDI-II); type: in vivo, human; settings: during treatment; patients with hallucinations (5) or delusions (1) at baseline
Source text: Exploratory end-points, in addition to constipation, included for example, (i) depression assessed using the Beck Depression Inventory (BDI-II) (Steer et al. 2000) and Unified Parkinson's Disease Rating Scale (UPDRS); (ii) cognition assessed using the Mini Mental State Examination (MMSE) (Palsteia et al. 2018), Unified Parkinson's Disease Rating Scale (UPDRS), and Trail Making Test (TMT); (iii) sleep and REM-behavior disorder (RBD) using a daily sleep diary, I-Button Temperature Assessment, a REM sleep behavior disorder (RBD) questionnaire (RBDQ) (Stiasny-Kolster et al. 2007), and the UPDRS; (iv) hallucinations assessed using the PD hallucinations questionnaire (PDHQ) (Papapetropoulos et al. 2008), the UPDRS, and direct questioning; (v) fatigue using the Parkinson's Disease Fatigue Scale (PFS-16) and the UPDRS; (vi) motor functions using the UPDRS; and (vii) non-motor functions using the UPDRS.
Assessments were made at baseline and at the end of the fixed dose and washout periods. Circadian system status was evaluated by continuously monitoring wrist skin temperature (Thermochron iButton DS1921H; Maxim, Dallas) following published procedures (Sarabia et al. 2008). […]
CNS symptoms were evaluated at baseline and at the end of the fixed dose period and the wash-out period (Table 12). […]

[2] = tested on: patients with PD and constipation; test: Adverse events, Stage 1; type: in vivo, human; settings: Stage 1, 10 dosed
Source text: Tolerability limits included diarrhea or vomiting.

patients with PD [3] = test: Circadian rhythm of wrist skin temperature; type: in vivo, human; settings: for circadian rhythm of wrist skin temperature (IS, IV, RA, CFI): fixed dose vs baseline, 12 evaluable patients
Method: (6) I-Button Temperature Assessment. The I-Button is a small, rugged self-sufficient system that measures temperature and records the results in a protected memory section. The Thermochron I-Button DS1921H (Maxim Integrated, Dallas, Tex.) was used for skin temperature measurement. I-Buttons were programmed to sample every 10 mins., and attached to a double-sided cotton sport wrist band using Velcro, with the sensor face of the I-Button placed over the inside of the wrist, on the radial artery of the dominant hand. Subjects removed and replaced the data logger when necessary (i.e., to have a bath or shower). The value of skin temperature assessment in sleep research is that the endogenous skin warming resulting from increased skin blood flow is functionally linked to sleep propensity. From the collected data, the mesor, amplitude, acrophase (time of peak temperature), Rayleight test (an index of interdaily stability), mean waveforms are calculated.);
Circadian rhythm of skin temperature was evaluable in 12 patients (i.e., those who had recordings that extended from baseline through washout). Circadian system functionality was evaluated by continuously monitoring wrist skin temperature using a temperature sensor (Thermochron iButton DS1921H; Maxim, Dallas, Tex.) (Sarabia et al. 2008). A nonparametric analysis was performed for each participant to characterize DST as previously described (Sarabia et al. 2008; Ortiz-Tudela et al. 2010).
Briefly, this analysis includes the following parameters: (i) the inter-daily stability (the constancy of 24-hour rhythmic pattern over days, IS); (ii) intra-daily variability (rhythm fragmentation, IV); (iii) average of 10-minute intervals for the 10 hours with the minimum temperature (L10); (iv) average of 10-minute intervals for the 5 hours with the maximum temperature (M5) and the relative amplitude (RA), which was determined by the difference between M5 and L10, divided by the sum of both. Finally, the Circadian Function Index (CFI) was calculated by integrating IS, IV, and RA. […]

[4] = tested on: patients with PD and constipation; test: Adverse events, Stage 2; type: in vivo, human; settings: Stage 2, number of patients
Method: (§1) In Stage 2, 34 patients were evaluated.

[5] = tested on: patients with PD and constipation; test: Phase 2 trial Stage 2 (daily dosing): bowel function, stool related indices; type: in vivo, human
Method: as §1
The primary efficacy outcome variable was whether or not a subject was a “success” or “failure”. This is an endpoint based on subject diary entries for the “fixed dose” period prior to the endpoint assessment defined as average complete stool frequency increase by 1 or more over baseline, or 3 or more complete spontaneous stools/week. The subject was deemed a “success” if s/he met one or more of the criteria listed above, otherwise the subject was deemed a “failure”. The primary analysis was based on all subjects with a baseline assessment and an assessment at the end of the “fixed-dose” period and was a comparison of the proportion of successes with 0.10 (the null hypothesis corresponding to no treatment effect).

[6] = Pharmacokinetics of orally administered squalamine (ENT-01) in Stage 1; type: in vivo; settings: human, this study
Method: PK data were collected on the 10 patients enrolled in Stage 1 and 10 patients enrolled in Stage 2 to determine the extent of systemic absorption. In Stage 1, PK data were obtained at each visit, pre-medication, at 1, 2, 4, 8 and 24 hours (Table 10). In Stage 2, PK was measured on days 1 and 6 of the randomization period pre-medication, at 1, 2, 4 and 8 hours (Table 11).
The mean Cmax, Tmax and T1/2 and AUC of the squalamine ion following squalamine (ENT-01) oral dosing for Stage 1 patients. The PK analyses are only approximate, as the lower limit of the validated concentration range was 10 ng/ml; most of the measured concentrations fell below that value. The mean Cmax, Tmax and T1/2 and AUC of the squalamine ion following squalamine (ENT-01) oral dosing for Stage 2 patients. The PK analyses are only approximate, as the lower limit of the validated concentration range was 0.5 ng/ml.

mouse models of PD = settings: oral; mice with constipation due to overexpression of human αS (West et al, manuscript in preparation); cited from earlier work
[7] = tested on: IPANs (intrinsic primary afferent neuron); settings: isolated bowel segment, PD mouse model, luminal perfusion; cited from earlier work
[8] = following systemic administration, in mice; cited from earlier work

CC(C)[C@@H](CC[C@@H](C)[C@H]1CC[C@H]2[C@@H]3[C@H](O)C[C@H]4C[C@@H](NCCCNCCCCN)CC[C@]4(C)[C@H]3CC[C@]12C)OS(=O)(=O)O (single isomer, unassigned) [squalamine (ENT-01), squalamine]
patients in whom hallucinations and delusions improved or disappeared (patients with PD [1]): 5 of 6 | Abdominal pain, Mild [2]: 2 (20) n | Abdominal pain, Moderate [2]: 3 (30) n | Blood in urine, Moderate [2]: 0 n | Diarrhea, Mild [2]: 1 (10) n | Diarrhea, Moderate [2]: 3 (30) n | Diarrhea, Severe [2]: 0 n | Difficulty falling asleep, Mild [2]: 0 n | Difficulty falling asleep, Moderate [2]: 0 n | Dizziness, Mild [2]: 0 n | Dizziness, Moderate [2]: 0 n | Eye infection, Mild [2]: 0 n | Eye infection, Moderate [2]: 0 n | Flatulence, Mild [2]: 2 (20) n | Flatulence, Moderate [2]: 0 n | Headache, Mild [2]: 1 (10) n | Headache, Moderate [2]: 0 n | Increased urinary frequency, Mild [2]: 0 n | Increased urinary frequency, Moderate [2]: 0 n | Loss of appetite, Moderate [2]: 0 n | Lower GI bleed, Severe [2]: 0 n | Nausea, Mild [2]: 4 (40) n | Nausea, Moderate [2]: 0 n | Skin lesions-rash, Mild [2]: 0 n | Skin lesions-rash, Moderate [2]: 0 n | Urinary retention, Mild [2]: 0 n | Urinary retention, Moderate [2]: 0 n | Urinary tract infection, Mild [2]: 0 n | Urinary tract infection, Moderate [2]: 0 n | Vomiting, Mild [2]: 1 (10) n | Vomiting, Moderate [2]: 0 n | Worsening acid reflux, Mild [2]: 0 n | Worsening acid reflux, Moderate [2]: 0 n | Worsening hemorrhoid, Mild [2]: 0 n | Worsening hemorrhoid, Moderate [2]: 0 n | Blood in urine, Mild ([2]; unrelated to ENT-01): 1 (10) n | Loss of appetite, Mild ([2]; unrelated to ENT-01): 1 (10) n | circadian rhythm of wrist skin temperature (IS, IV, RA, CFI) (patients with PD [3]): significant positive impact | circadian rhythm of wrist skin temperature (IS, IV, RA, CFI) (patients with PD [3]; listed as ENT-01): improved all markers of healthy circadian function | circadian rhythm parameters (IS, CFI) (patients with PD [3]; wash-out period vs baseline): improvement persisted for several of these circadian parameters | patients who withdrew during dosing because of diarrhea [4]: 2 | response rate (CSBM within 24 hours of dosing on at least 2 of 3 days) ([5]; Stage 2, daily dosing, at 250 mg (range 75-250 mg)): 85% | SBM, weekly average ([5]; Stage 2, fixed dose, mean (SD), n = 34, baseline 2.6 (1.45)): 4.5 (2.21) /week

CC(C)[C@@H](CC[C@@H](C)[C@H]1CC[C@H]2[C@@H]3[C@H](O)C[C@H]4C[C@@H](NCCCNCCCCN)CC[C@]4(C)[C@H]3CC[C@]12C)OS(=O)(=O)O [squalamine]
systemic absorption following oral administration [6]: not significantly absorbed into the systemic circulation | gastro-intestinal motility (mouse models of PD): stimulates gastro-intestinal motility | effect on IPANs [7]: excitation of IPANs | clearance and excretion [8]: cleared by the liver and excreted as the intact molecule
